According to patent publication US20040072902A1, “Methods for inducing apoptosis and inhibiting proliferation in cancer cells” (priority 2003, published 2004):

Columns and labels:
[1] = test system: AsPC-1 human pancreatic cancer cells; test: Thymidine incorporation proliferation assay in AsPC-1 cells; type: cell-based
Text: This can be seen in FIG. 1A (results using myristoleic acid obtained from Sigma Chemicals (St. Louis, Mo.)) and FIG. 1B (results using myristoleic acid obtained from Matreya, Inc. (State College, Pa.)).
(§1) The results are presented in FIG. 2A (cetyl myristoleic acid) and FIG. 2B (palmitoleic acid).
(§2) The thymidine incorporation experiments described in Example 1 were repeated in triplicate on each of two malignant human pancreatic cancer cell lines, AsPC-1 and PANC-1. The results are set forth in FIG. 3A (AsPC-1) and FIG. 3B (PANC-1).

[2] = test system: AsPC-1 human pancreatic cancer cells; test: Cell morphology during inhibition of proliferation; type: cell-based; conditions: membrane blebbing, cellular rounding, detachment, data not shown
Text: as §1

AsPC-1 cells [3] = test: Annexin V binding (early apoptosis); type: cell-based, human; conditions: 10 μg/ml; 3 or 5 hours after beginning treatment
Protocol: The effect of myristoleic acid (10 μg/ml) (“MA”) on annexin V binding in AsPC-1 cells at 3 or 5 hours after beginning treatment is shown in FIG. 4. […] This specific test utilizes the translocation of phophatidyl serine from the inner to outer plasma membrane, which is a feature of early apoptosis. The results set forth in FIG. 4 are representative of three separate experiments.

HPAC xenografts = test: Growth of HPAC xenografts in athymic mice; type: in vivo; conditions: 250 mg/kg/day intraperitoneal
Protocol: (§3) The effects of daily intraperitoneal injection of myristoleic acid (250 mg/kg/day) on the growth of AsPC-1 and HPAC xenografts in athymic mice were investigated. Animals were injected daily with myristoleic acid (250 mg/kg/day) (labeled “myristoleic acid” in FIG. 6) or with a control solution (labeled “control” in FIG. 6) once visible tumors were established (about five days after implantation). […] The experiment was repeated twice with AsPC-1 cells and also with HPAC cells. The results set forth in FIG. 6 are representative of these experiments.
(§4) Tumor volumes of the above-described athymic mice were measured as a function of time, and the results are presented in FIG. 7A (AsPC-1 cancer cells) and FIG. 7B (HPAC cancer cells).
(§5) At the end of the experiment, the AsPC-1 and HPAC xenografts were harvested from the athymic mice and the weights of the tumors were measured.

AsPC-1 xenografts [4] = test: In situ TUNEL assay of harvested xenografts; type: in vivo, athymic mice; conditions: AsPC-1 xenografts harvested at end of experiment; versus vehicle (minimal staining)
Protocol: To determine whether the effects observed in the athymic mouse experiments described in Example 7 might be due to apoptosis, in situ TUNEL assays were carried out on the AsPC-1 xenografts that were harvested from the athymic mice at the end of the experiment. Images of xenograft sections from mice treated with the control solution (vehicle only) (FIGS. 9A and 9B) show minimal staining.

AsPC-1 xenografts [5] = test: Growth of AsPC-1 xenografts in athymic mice; type: in vivo; conditions: 250 mg/kg/day intraperitoneal
Protocol: as §3, §4, §5

AsPC-1 cells [6] = test: TUNEL assay (DNA fragmentation); type: cell-based, human; conditions: 10 μg/ml; 24 hours; versus control
Protocol: The effect of myristoleic acid (10 μg/ml) (“MA”) on terminal deoxynucleotidyl transferase-mediated dUTP nick end labeling (“TUNEL”) assay at 24 hours in AsPC-1 cells was investigated. The results are presented in FIGS. 5A (control) and 5B (10 μg/ml myristoleic acid). […] The results set forth in FIGS. 5A and 5B are representative of three separate experiments.

[7] = test system: PANC-1 human pancreatic cancer cells; test: Thymidine incorporation proliferation assay in PANC-1 cells; type: cell-based
Text: as §2

| SMILES | inhibition of proliferation as measured by thymidine incorporation ([1]; Example 2) | morphological changes accompanying inhibition of proliferation [2] | annexin V binding (AsPC-1 cells [3]) | anti-proliferative activity, concentration range of effects [1] | inhibition of proliferation as measured by thymidine incorporation ([1]; 24 hours, myristoleic acid from two commercial sources (Sigma, Matreya)) | effects on pancreatic cancer cell proliferation (thymidine incorporation) ([1]; repeated in triplicate) | tumor size (HPAC xenografts; daily, HPAC xenografts, throughout the experimental period) | tumor weight (HPAC xenografts; HPAC, at the end of the experiment) | tumor volume (HPAC xenografts; HPAC, throughout the experimental period) | apoptotic cells in xenograft sections (in situ TUNEL) (AsPC-1 xenografts [4]) | tumor size (AsPC-1 xenografts [5]; daily, AsPC-1 xenografts, throughout the experimental period) | tumor weight (AsPC-1 xenografts [5]; AsPC-1, at the end of the experiment) | tumor volume (AsPC-1 xenografts [5]; AsPC-1, throughout the experimental period) | number of apoptotic cells by TUNEL assay (AsPC-1 cells [6]) | anti-proliferative activity, concentration range of effects [7] | effects on pancreatic cancer cell proliferation (thymidine incorporation) ([7]; repeated in triplicate) |
| --- | --- | --- | --- | --- | --- | --- | --- | --- | --- | --- | --- | --- | --- | --- | --- | --- |
| CCCCCC/C=C\CCCCCCCC(=O)O [palmitoleic acid] | concentration-dependent inhibition of proliferation | morphological changes associated with apoptosis | – | – | – | – | – | – | – | – | – | – | – | – | – | – |
| CCCC/C=C\CCCCCCCC(=O)OCCCCCCCCCCCCCCCC [cetyl myristoleic acid] | concentration-dependent inhibition of proliferation | morphological changes associated with apoptosis | – | – | – | – | – | – | – | – | – | – | – | – | – | – |
| CCCC/C=C\CCCCCCCC(=O)O [myristoleic acid] | – | morphological changes associated with apoptosis | Marked membrane fluorescence | low micromolar range | concentration-dependent inhibition of proliferation | concentration-dependent effects | marked reduction in tumor size | marked reduction | marked reduction | many apoptotic cells | marked reduction in tumor size | marked reduction | marked reduction | marked increase in the number of apoptotic cells | low micromolar range | concentration-dependent effects |
